Test results reported in patent US20080311657A1, “Killing Human Lymphoma and Leukemia Cancer Cells and Tcr-Activated Normal Human Cells By Dopamine D1r Agonists” (priority 2005, published 2008).
Values joined by “and” are separate entries in the source; they are usually repeats but may differ in a detail not shown here. Identical values can stand only once. “Also recorded” adds a separate entry of the source.

Key:
[1] = tested on: Human T-cell leukemia (Jurkat) cells; assay: Number of living cells counted by flow cytometry (FACSort) after D1R agonist; format: cell-based; conditions: added four times during 1 hour, counted 3 days later
Protocol: Afterwards, the microtiter plates were placed in an incubator (37° C., humidified incubator, 5% CO2) for 3 days. Then, the number of living cells was evaluated by flow cytometry (the cells were counted by FACsort for a fixed time length of 1 min, in which 100 microliter of each sample was tested). Of note, A 77636 hydrochloride is an orally-active D1R agonist, according to the manufacturer (Tocris).
Afterwards, the microtiter plates were placed in an incubator (37° C., humidified incubator, 5% CO2) for 3 days. Then, the number of living cells was evaluated by flow cytometry (the cells were counted by FACsort for a fixed time length of 1 min, in which 100 microliter of each sample was tested).
(§1) The experiment was designed to test the effect of exposing the cells to the D1R agonist for 1 min, 15 min, 1 hr or 72 hr. Thus, 1 min, or 15 min or 1 hr after the addition of the D1R agonist, the corresponding cells were transferred into tubes, centrifuged (1000 rpm for 10 min); and the supernatant was removed. […] Thus, its medium was not replaced, and these cells and remained as such in the incubator for 72 hr. At the end of the 72 hr incubation, the number of living cells was evaluated by flow cytometry (the cells were counted by FACsort for a fixed time length of 1 min, in which 100 microliter of each sample was tested).
(§2) Cell viability was tested afterwards.
(§3) For this purpose, the Jurkat T-cell leukemia line, the HuT-78 human T-lymphoma (cutaneous “Sezary” T-lymphoma) line, and the K-562 human Chronic-Myeloid Leukemia (CML) and Daudi Human B-lymphoma (Burkitt's lymphoma) lines were seeded in tissue culture wells (0.5 million cells/0.5 ml/well).
(§4) Cell survival/death was evaluated 3 days later by counting the number of living cells, using flow cytometry.

[2] = tested on: Human chronic myelogenous leukemia cells (CML) (K-562); assay: as above; format: cell-based; conditions: added four times during 1 hour, counted 3 days later
Protocol: (§5) Human chronic myelogenous leukemia cells (CML) (K-562) were seeded in 96 well plates (0.5 ml per well of 0.5 million cells/ml) and A 77636 hydrochloride was added and diluted 1:00 into the wells at starting concentrations of 10^−1M-10^−4M, so that the final concentration range tested was 10^−3M-10^−6M. Afterwards, the microtiter plates were placed in an incubator (37° C., humidified incubator, 5% CO2) for 3 days. Then, the number of living cells was evaluated by flow cytometry (the cells were counted by FACsort for a fixed time length of 1 min, in which 100 microliter of each sample was tested).
as §5, with “68930” for “77636”
as §5, with “SKF 38393 hydrobromide” for “A 77636 hydrochloride”
as §1, with “Human chronic myelogenous leukemia cells (CML) (K-562) were seeded in 96 well plates (0.5 ml per well of 0.5 million cells/ml) and A 77636 hydrochloride was added and diluted 1:00 into the wells, at a fixed starting concentration of 10^−2M, so that the final concentration tested was 10^−4M. The” for “The”, “min),” for “min);”
as §2, §3, §4
The effect of dopamine itself (that can of course activate all its D1R-5 receptors) was also tested. All of these molecules were tested at a similar concentration (10^−4 M). […] The specificity and restriction of the effect to the D1R is also seen in Tables 7 and 8.

[3] = tested on: Human Burkitt's B-Cell Lymphoma (Daudi); assay: Cell death by LDH release (CytoTox 96); format: cell-based; conditions: FDM 10^−4M-10^−12M, added four times during 1 hour
Protocol: as §2

[4] = tested on: Human T-cell leukemia (Jurkat); assay: Cell death by LDH release (CytoTox 96); format: cell-based; conditions: FDM 10^−4M-10^−12M, added four times during 1 hour
Protocol: as §2

[5] = tested on: TCR-activated normal human T-cells; assay: Cell death by LDH release (CytoTox 96); format: cell-based; conditions: FDM 10^−4M-10^−10M, added four times during 1 hour; methanesulfonate
Protocol: Non-tissue culture treated 24-well plates (Falcon, Franklin Lakes, N.J.) were coated overnight at 4° C. with anti-CD3 and anti-CD28 monoclonal antibodies (mabs) (BD Pharmingen, San Jose, Calif.); ([…] in PBS). The wells were then washed with PBS, blocked for 1 hour at 37° C. (PBS/1% BSA), and washed again. The freshly purified normal human T-cells were resuspended in their respective fresh media and seeded in the anti-CD3/CD28 coated wells (1×10^6 per well), and the plates were incubated for 72 hours (37° C., humidified incubator, 5% CO2). Then, the cells and their media were collected from each well, transferred into 50 ml tubes, centrifuged (1200 rpm, 10 minutes) and both the TCR-activated cells and their culture media were collected and transferred into clean separate tubes.
as §2

[6] = tested on: Human cutaneous Sezary T-lymphoma cells (HuT-78); assay: Number of living cells counted by flow cytometry (FACSort) after D1R agonist; format: cell-based; conditions: added four times during 1 hour, counted 3 days later
[7] = tested on: Human T-Cell Lymphoma (HuT-78); assay: Cell death by LDH release (CytoTox 96); format: cell-based; conditions: FDM 10^−4M-10^−12M, added four times during 1 hour
[8] = tested on: Human Chronic Myeloid Leukemia (CML, K-562); assay: Cell death by LDH release (CytoTox 96); format: cell-based; conditions: FDM 10^−4M-10^−12M, added four times during 1 hour
[9] = patients receiving the 48 hour FDA-approved infusion; cited from earlier work

Which results are given for CS(=O)(=O)O.Oc1ccc(C2CNCCc3c2cc(O)c(O)c3Cl)cc1 (stereo not drawn) [FDM, 6-chloro-2,3,4,5-tetrahydro-1-(4-hydroxyphenyl)-[1H]-3-benzazepine-7,8-diol methanesulfonate]?
% Dead Cells ([1]; FDM 10^−4M): ~100%; No. of Living Cells ([1]; FDM 10^−4M): 4; % Dead Cells ([1]; FDM 10^−6M): 18%; No. of Living Cells ([1]; FDM 10^−6M): 15938; No. of Living Cells ([1]; FDM 10^−8M): 7451; % Dead Cells ([1]; FDM 10^−8M, methanesulfonate): 62%; % Dead Cells ([1]; FDM 10^−10M): 52%; No. of Living Cells ([1]; FDM 10^−10M): 9472; % Dead Cells ([1]; FDM 10^−12M): 46%; No. of Living Cells ([1]; FDM 10^−12M): 10568; % Dead Cells ([2]; FDM 10^−4M): 100%; No. of Living Cells ([2]; FDM 10^−4M): 21; % Dead Cells ([2]; FDM 10^−6M): 34%; No. of Living Cells ([2]; FDM 10^−6M): 18680; No. of Living Cells ([2]; FDM 10^−8M): 21137; % Dead Cells ([2]; FDM 10^−8M, methanesulfonate): 25% and 26%; % Dead Cells ([2]; FDM 10^−10M): 25%; No. of Living Cells ([2]; FDM 10^−10M): 21476; % Dead Cells ([2]; FDM 10^−12M): 33%; No. of Living Cells ([2]; FDM 10^−12M): 19250; Killing evident by LDH release (FIG. 5), in words [3]: kills human Burkitt's B-lymphoma in a dose dependent manner; Killing evident by LDH release (FIG. 2), in words [4]: kills human T-cell leukemia in a dose dependent manner; Killing evident by LDH release (FIG. 8), in words [5]: marked death; also recorded: kills human TCR-activated T-cells, in a dose dependent manner; % Dead Cells ([6]; FDM 10^−4M): 99%; No. of Living Cells ([6]; FDM 10^−4M): 213; % Dead Cells ([6]; FDM 10^−6M): 28%; No. of Living Cells ([6]; FDM 10^−6M): 17023; No. of Living Cells ([6]; FDM 10^−8M): 16080; % Dead Cells ([6]; FDM 10^−8M, methanesulfonate): 32%; % Dead Cells ([6]; FDM 10^−10M): 38%; No. of Living Cells ([6]; FDM 10^−10M): 14728; % Dead Cells ([6]; FDM 10^−12M): 46%; No. of Living Cells ([6]; FDM 10^−12M): 12662; Killing evident by LDH release (FIG. 3), in words [7]: kills human cutaneous Sezary T-cell lymphoma in a dose dependent manner; Killing evident by LDH release (FIG. 4), in words [8]: kills human chronic myelogenous leukemia (CML) in a dose dependent manner; Approximate steady state concentration in the circulation [9]: ~10^−8 M
